# In patent US20170050957A1, “4-AMINO-6-(HETEROCYCLIC)PICOLINATES AND 6-AMINO-2-(HETEROCYCLIC)PYRIMIDINE-4-CARBOXYLATES AND THEIR USE AS HERBICIDES” (Dow AgroSciences LLC, priority 2013, published 2017):
# Like-named read-outs stand apart in the source and are kept apart here.
# What was measured:
# [1] = tested on: Key Broadleaf Weed and Crop Species; test: Post-emergent Test II herbicidal activity (Table 15); format: in vivo; conditions: post-emergence, 336 h, 14 d; for pest or weed control at 35 g/ha: 35 g ai/ha; for pest or weed control at 70 g/ha: 70 g ai/ha; for pest or weed control at 140 g/ha: 140 g ai/ha
# Method in brief: (§1)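 Greenhouse-grown seedlings at first/second true leaf receive a track spray at 187 L/ha, using a highest rate plus two-fold serial dilutions down to 1/16×. Watering is by subirrigation to avoid wash-off. Percent injury (0-100) is judged by eye at 14 d against untreated plants.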
# [2] = tested on: Key Grass and Sedge Weeds as well as Grass Crops; test: Post-emergent Test II herbicidal activity (Table 16); format: in vivo; conditions: post-emergence, 336 h, 14 d; for pest or weed control at 35 g/ha: 35 g ai/ha; for pest or weed control at 70 g/ha: 70 g ai/ha; for pest or weed control at 140 g/ha: 140 g ai/ha
# Method in brief: as §1
# [3] = Abutilon theophrasti, velvetleaf (Abutilon theophrasti), read-out: Visual Growth Reduction (%) 14 Days After Application, ABUTH
# [4] = Amaranthus retroflexus, redroot pigweed (Amaranthus retroflexus), read-out: Visual Growth Reduction (%) 14 Days After Application, AMARE
# [5] = Brassica napus, oilseed rape, canola (Brassica napus), read-out: Visual Growth Reduction (%) 14 Days After Application, BRSNN
# [6] = Chenopodium album, lambsquarters (Chenopodium album), read-out: Visual Growth Reduction (%) 14 Days After Application, CHEAL
# [7] = Euphorbia heterophylla, wild poinsettia (Euphorbia heterophylla), read-out: Visual Growth Reduction (%) 14 Days After Application, EPHHL
# [8] = Helianthus annuus, sunflower (Helianthus annuus), read-out: Visual Growth Reduction (%) 14 Days After Application, HELAN
# [9] = Cyperus esculentus, yellow nutsedge (Cyperus esculentus), read-out: Visual Growth Reduction (%) 14 Days After Application, CYPES
# [10] = Echinochloa crus-galli, barnyardgrass (Echinochloa crus-galli), read-out: Visual Growth Reduction (%) 14 Days After Application, ECHCG
# [11] = Oryza sativa, rice (Oryza sativa), read-out: Visual Growth Reduction (%) 14 Days After Application, ORYSA
# [12] = Setaria faberi, giant foxtail (Setaria faberi), read-out: Visual Growth Reduction (%) 14 Days After Application, SETFA
# [13] = Triticum aestivum, wheat, spring (Triticum aestivum), read-out: Visual Growth Reduction (%) 14 Days After Application, TRZAS
# [14] = Zea mays, maize, corn (Zea mays), read-out: Visual Growth Reduction (%) 14 Days After Application, ZEAMX
compound,measurement,setting,value
Nc1c(F)c(-c2cc3[nH]ccc3cc2F)nc(C(=O)O)c1Cl [Compound 1.14],pest or weed control at 35 g/ha,[1]; [3],0 to 29%
same,pest or weed control at 70 g/ha,[1]; [3],0 to 29%
same,pest or weed control at 140 g/ha,[1]; [3],0 to 29%
same,pest or weed control at 35 g/ha,[1]; [4],75 to 84%
same,pest or weed control at 70 g/ha,[1]; [4],85 to 94%
same,pest or weed control at 140 g/ha,[1]; [4],85 to 94%
same,pest or weed control at 35 g/ha,[1]; [5],45 to 59%
same,pest or weed control at 70 g/ha,[1]; [5],60 to 74%
same,pest or weed control at 140 g/ha,[1]; [5],75 to 84%
same,pest or weed control at 35 g/ha,[1]; [6],60 to 74%
same,pest or weed control at 70 g/ha,[1]; [6],60 to 74%
same,pest or weed control at 140 g/ha,[1]; [6],75 to 84%
same,pest or weed control at 35 g/ha,[1]; [7],0 to 29%
same,pest or weed control at 70 g/ha,[1]; [7],0 to 29%
same,pest or weed control at 140 g/ha,[1]; [7],60 to 74%
same,pest or weed control at 35 g/ha,[1]; [8],60 to 74%
same,pest or weed control at 70 g/ha,[1]; [8],75 to 84%
same,pest or weed control at 140 g/ha,[1]; [8],75 to 84%
same,pest or weed control at 35 g/ha,[2]; [9],0 to 29%
same,pest or weed control at 70 g/ha,[2]; [9],0 to 29%
same,pest or weed control at 140 g/ha,[2]; [9],0 to 29%
same,pest or weed control at 35 g/ha,[2]; [10],0 to 29%
same,pest or weed control at 70 g/ha,[2]; [10],0 to 29%
same,pest or weed control at 140 g/ha,[2]; [10],0 to 29%
same,pest or weed control at 35 g/ha,[2]; [11],0 to 29%
same,pest or weed control at 70 g/ha,[2]; [11],0 to 29%
same,pest or weed control at 140 g/ha,[2]; [11],0 to 29%
same,pest or weed control at 35 g/ha,[2]; [12],0 to 29%
same,pest or weed control at 70 g/ha,[2]; [12],0 to 29%
same,pest or weed control at 140 g/ha,[2]; [12],0 to 29%
same,pest or weed control at 35 g/ha,[2]; [13],0 to 29%
same,pest or weed control at 70 g/ha,[2]; [13],0 to 29%
same,pest or weed control at 140 g/ha,[2]; [13],0 to 29%
same,pest or weed control at 35 g/ha,[2]; [14],0 to 29%
same,pest or weed control at 70 g/ha,[2]; [14],0 to 29%
same,pest or weed control at 140 g/ha,[2]; [14],0 to 29%
COC(=O)c1nc(-c2ccc3occc3c2)nc(N)c1OC [Compound 2.06],pest or weed control at 35 g/ha,[1]; [3],0 to 29%
same,pest or weed control at 70 g/ha,[1]; [3],0 to 29%
same,pest or weed control at 140 g/ha,[1]; [3],75 to 84%
same,pest or weed control at 35 g/ha,[1]; [4],75 to 84%
same,pest or weed control at 70 g/ha,[1]; [4],95 to 100%
same,pest or weed control at 140 g/ha,[1]; [4],95 to 100%
same,pest or weed control at 35 g/ha,[1]; [5],30 to 44%
same,pest or weed control at 70 g/ha,[1]; [5],60 to 74%
same,pest or weed control at 140 g/ha,[1]; [5],85 to 94%
same,pest or weed control at 35 g/ha,[1]; [6],60 to 74%
same,pest or weed control at 70 g/ha,[1]; [6],75 to 84%
same,pest or weed control at 140 g/ha,[1]; [6],85 to 94%
same,pest or weed control at 35 g/ha,[1]; [7],30 to 44%
same,pest or weed control at 70 g/ha,[1]; [7],75 to 84%
same,pest or weed control at 140 g/ha,[1]; [7],95 to 100%
same,pest or weed control at 35 g/ha,[1]; [8],60 to 74%
same,pest or weed control at 70 g/ha,[1]; [8],75 to 84%
same,pest or weed control at 140 g/ha,[1]; [8],85 to 94%
same,pest or weed control at 35 g/ha,[2]; [9],0 to 29%
same,pest or weed control at 70 g/ha,[2]; [9],0 to 29%
same,pest or weed control at 140 g/ha,[2]; [9],0 to 29%
same,pest or weed control at 35 g/ha,[2]; [10],0 to 29%
same,pest or weed control at 70 g/ha,[2]; [10],45 to 59%
same,pest or weed control at 140 g/ha,[2]; [10],95 to 100%
same,pest or weed control at 35 g/ha,[2]; [11],0 to 29%
same,pest or weed control at 70 g/ha,[2]; [11],0 to 29%
same,pest or weed control at 140 g/ha,[2]; [11],0 to 29%
same,pest or weed control at 35 g/ha,[2]; [12],0 to 29%
same,pest or weed control at 70 g/ha,[2]; [12],0 to 29%
same,pest or weed control at 140 g/ha,[2]; [12],0 to 29%
same,pest or weed control at 35 g/ha,[2]; [13],0 to 29%
same,pest or weed control at 70 g/ha,[2]; [13],0 to 29%
same,pest or weed control at 140 g/ha,[2]; [13],0 to 29%
same,pest or weed control at 35 g/ha,[2]; [14],0 to 29%
same,pest or weed control at 70 g/ha,[2]; [14],0 to 29%
same,pest or weed control at 140 g/ha,[2]; [14],0 to 29%
